Laboratory results as given in US5158952A, “3-[2-[4-(6-fluoro-1,2-benzisoxozol-3-yl)-1-piperidinyl]ethyl]-6,7,8,9 tetrahydro-9-hydroxy-2-methyl-4H-pyrido [1,2-a]pyrimidin-4-one, compositions and method of use” (Janssen Pharmaceutica N.V., priority 1989, dated 1992).

Tests used:
Type in all cases: in vivo
norepinephrine = test: combined APO, TRY, NOR test in rats: norepinephrine; details: for ED50: Rattus norvegicus
From the text: (§1) The antipsychotic activity of the subject compounds is evidenced by the experimental data obtained in at least one of two different test procedures, viz. the combined apomorphine (APO), tryptamine (TRY) and norepinephrine (NOR) test in rats, and the apomorphine test in dogs. Said combined apomorphine, tryptamine and norepinephrine test is described in Ach. int. Pharmacodyn., 227, 238-253 (1977) and provides an empirical evaluation of the relative specificity with which drugs may effect particular neurotransmitter systems centrally (CNS) as well as peripherally. […] Said apomorphine test in dogs is described in Arzneim.-Forsch. (Drug Res.), 9, 765-767 (1959) and provides a measure of the duration of action of the tested compounds.

dopamine [1] = test: combined apomorphine (APO), tryptamine (TRY) and norepinephrine (NOR) test in rats: apomorphine; details: for ED50: Rattus norvegicus
From the text: as §1

serotonin [2] = test: combined APO, TRY, NOR test in rats: tryptamine convulsions (central); details: for ED50: Rattus norvegicus
From the text: as §1

serotonin [3] = test: combined APO, TRY, NOR test in rats: tryptamine hyperaemia (peripheral); details: for ED50: Rattus norvegicus
From the text: as §1

dopamine [4] = test: apomorphine test in dogs (duration of action); details: for (APO)-dog test, ED50, 4 hr: 240 min; for (APO)-dog test, ED50, 16 hr: 960 min; for ED50: Canis lupus familiaris
From the text: The compounds of formula (I) show the additional advantage of being eliminated rather slowly from the body and thus of being long acting. This can be evidenced, for example, by measuring the plasma levels after oral administration to dogs and by the long acting antiemetic effect exerted by the present compounds on dogs challenged with the dopamine agonist apomorphine. Especially the compounds of formula (I) wherein R^3 is a higher alkylcarbonyloxy radical have a long duration of action. […] Consequently, the present compounds allow for a more efficient therapy: the slow elimination facilitates maintaining a stable plasma concentration at a non-toxic, effective level and the reduction in the number of administrations may be expected to result in better compliance of the subject to be treated with the prescribed medication.
as §1

[5] = 1 h, read-out: (APO)-dog test, ED50, 1 hr

Row | SMILES | ED50 (norepinephrine) [mg/kg] | ED50 (dopamine [1]) [mg/kg] | (TRY)-convulsions ED50 (serotonin [2]) [mg/kg] | (TRY)-hyperaemia ED50 (serotonin [3]) [mg/kg] | (APO)-dog test, ED50, 4 hr (dopamine [4]) [mg/kg] | (APO)-dog test, ED50, 16 hr (dopamine [4]) [mg/kg] | ED50 (dopamine [4]; [5]) [mg/kg] | (NOR) ED50 (norepinephrine) [mg/kg] | (APO) ED50 (dopamine [1]) [mg/kg] | (APO)-dog test, ED50, 1 hr (dopamine [4]; 1 hr, 60 min) [mg/kg] | ED50 (serotonin [2]) [mg/kg] | ED50 (serotonin [3]) [mg/kg] | ED50 (dopamine [4]; 4 h, read-out: (APO)-dog test, ED50, 4 hr) [mg/kg] | ED50 (dopamine [4]; 16 h, read-out: (APO)-dog test, ED50, 16 hr) [mg/kg]
1 | Cc1nc2n(c(=O)c1CCN1CCC(c3noc4cc(F)ccc34)CC1)CCCC2O (single isomer, unassigned; (+)) [Compound 2, (+)-3-[2-[4-(6-fluoro-1,2-benzisoxazol-3-yl)-1-piperidinyl]ethyl]-6,7,8,9-tetrahydro-9-hydroxy-2-methyl-4H-pyrido[1,2-a]-pyrimidin-4-one] | 1.25 | 0.31 | 0.08 | 0.00031 | 0.03 | 0.06 | 0.015 |  |  |  |  |  |  | 
2 | Cc1nc2n(c(=O)c1CCN1CCC(c3noc4cc(F)ccc34)CC1)CCCC2O (single isomer, unassigned; (-)) [Compound 3, (-)-3-[2-[4-(6-fluoro-1,2-benzisoxazol-3-yl)-1-piperidinyl]-ethyl]-6,7,8,9-tetrahydro-9-hydroxy-2-methyl-4H-pyrido[1,2-a]-pyrimidin-4-one] |  |  | 0.31 | 0.00063 | 0.007 | 0.015 |  | 0.63 | 0.31 | 0.008 |  |  |  | 
3 | Cc1nc2n(c(=O)c1CCN1CCC(c3noc4cc(F)ccc34)CC1)CCCC2O (stereo not drawn) [Compound 1, 3-[2-[4-(6-fluoro-1,2-benzisoxazol-3-yl)-1-piperidinyl]ethyl]-6,7,8,9-tetrahydro-9-hydroxy-2-methyl-4H-pyrido[1,2-a]pyrimidin4-one] | 0.08 | 0.25 |  |  |  |  | 0.015 |  |  |  | 0.31 | 0.002 | 0.015 | 0.015
4 | CC(=O)OC1CCCn2c1nc(C)c(CCN1CCC(c3noc4cc(F)ccc34)CC1)c2=O (stereo not drawn) [Compound 4, 3-[2-[4-(6-fluoro-1,2-benzisoxazol-3-yl)-1-piperidinyl]ethyl]-6,7,8,9-tetrahydro-2-methyl-4-oxo-4H-pyrido[1,2-a]pyrimidin-9-ol acetate(ester)] |  | 0.31 |  |  |  |  | 0.015 |  |  |  | 0.08 | 0.00031 |  | 
5 | CCCC(=O)OC1CCCn2c1nc(C)c(CCN1CCC(c3noc4cc(F)ccc34)CC1)c2=O (stereo not drawn) [Compound 5, [3-[2-[4-(6-fluoro-1,2-benzisoxazol-3-yl)-1-piperidinyl]ethyl]-6,7,8,9-tetrahydro-2-methyl-4-oxo-4H-pyrido[1,2-a]pyrimidin-9-yl]butanoate] | 0.16 | 0.31 |  |  |  |  | 0.008 |  |  |  | 0.31 | 0.00125 |  | 
